Results published in ChEMBL document CHEMBL4311982, “Discovery of novel, potent, isosteviol-based antithrombotic agents” (Eur J Med Chem, 2019).

Key:
Rattus norvegicus [1] = species: Rattus norvegicus; also: test concentration or dose not given here
[2] = MRT in Wistar rat at 6.6 umol/kg, iv measured upto 24 hrs by LC-MS/MS analysis; assay type: ADME, organism-based; details: in vivo
[3] = Volume of distribution in Wistar rat at 6.6 umol/kg, iv measured upto 24 hrs by LC-MS/MS analysis; assay type: ADME, organism-based; details: in vivo
[4] = AUC (0 to infinity) in Wistar rat at 6.6 umol/kg, iv measured upto 24 hrs by LC-MS/MS analysis; assay type: ADME, organism-based; parameters: dose 6.6 umol/kg, time infinity, route intravenous; details: in vivo
[5] = AUC (0 to infinity) in Wistar rat at 22 umol/kg, po measured upto 24 hrs by LC-MS/MS analysis; assay type: ADME, organism-based; parameters: dose 22 umol/kg, time infinity, route oral; details: in vivo
[6] = Cmax in Wistar rat at 22 umol/kg, po measured upto 24 hrs by LC-MS/MS analysis; assay type: ADME, organism-based; parameters: dose 22 umol/kg, route oral; details: in vivo
[7] = Half life in Wistar rat at 22 umol/kg, po measured upto 24 hrs by LC-MS/MS analysis; assay type: ADME, organism-based; details: in vivo
[8] = Clearance in Wistar rat at 22 umol/kg, po measured upto 24 hrs by LC-MS/MS analysis; assay type: ADME, organism-based; details: in vivo
[9] = Volume of distribution in Wistar rat at 22 umol/kg, po measured upto 24 hrs by LC-MS/MS analysis; assay type: ADME, organism-based; details: in vivo
Coagulation factor X = Coagulation factor X (Homo sapiens, UniProt P00742); assay: Inhibition of human activated Factor X using S-2765 as substrate incubated for 15 mins followed by substrate addition and measured after 1 hr by chromogenic assay
Chain of Coagulation factor X (P00742 41-179 limits assumed): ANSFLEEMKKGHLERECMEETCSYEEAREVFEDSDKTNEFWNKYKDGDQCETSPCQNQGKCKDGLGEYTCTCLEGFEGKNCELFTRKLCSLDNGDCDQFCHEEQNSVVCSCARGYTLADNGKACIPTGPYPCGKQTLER
Chain of Coagulation factor X (P00742 235-488 limits assumed): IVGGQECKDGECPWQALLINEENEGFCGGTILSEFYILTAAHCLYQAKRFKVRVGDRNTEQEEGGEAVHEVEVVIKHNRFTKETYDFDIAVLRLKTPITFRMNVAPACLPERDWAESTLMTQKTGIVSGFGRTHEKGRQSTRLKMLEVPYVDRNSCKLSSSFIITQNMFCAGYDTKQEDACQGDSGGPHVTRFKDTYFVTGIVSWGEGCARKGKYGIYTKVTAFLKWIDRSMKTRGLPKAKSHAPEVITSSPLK

Coagulation factor XI = Coagulation factor XI (Homo sapiens, UniProt P03951); assay: Inhibition of human activated Factor XI using S-2366 as substrate incubated for 15 mins followed by substrate addition and measured after 1 hr by chromogenic assay
Chain of Coagulation factor XI (P03951 19-387 limits assumed): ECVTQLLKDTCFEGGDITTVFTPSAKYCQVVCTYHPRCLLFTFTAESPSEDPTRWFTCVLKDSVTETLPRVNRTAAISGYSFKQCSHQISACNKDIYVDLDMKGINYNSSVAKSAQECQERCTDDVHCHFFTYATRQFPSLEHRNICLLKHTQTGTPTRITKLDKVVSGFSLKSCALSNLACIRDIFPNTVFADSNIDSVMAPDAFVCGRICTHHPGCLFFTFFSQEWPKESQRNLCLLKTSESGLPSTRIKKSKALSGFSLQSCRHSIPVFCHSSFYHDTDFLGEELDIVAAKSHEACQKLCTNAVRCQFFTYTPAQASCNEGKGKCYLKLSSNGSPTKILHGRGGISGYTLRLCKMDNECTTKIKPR
Chain of Coagulation factor XI (P03951 388-625 limits assumed): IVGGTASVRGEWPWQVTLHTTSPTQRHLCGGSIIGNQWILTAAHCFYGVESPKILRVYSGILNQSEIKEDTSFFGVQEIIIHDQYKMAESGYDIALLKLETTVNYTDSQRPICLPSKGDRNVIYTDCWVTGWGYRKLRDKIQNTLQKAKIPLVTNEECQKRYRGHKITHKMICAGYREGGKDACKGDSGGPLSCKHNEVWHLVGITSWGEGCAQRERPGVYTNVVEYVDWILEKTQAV

[10] = Clearance in Wistar rat at 6.6 umol/kg, iv measured upto 24 hrs by LC-MS/MS analysis; assay type: ADME, organism-based; details: in vivo
Plasma kallikrein = Plasma kallikrein (Homo sapiens, UniProt P03952); assay: Inhibition of human kallikrein using S-2302 as substrate incubated for 15 mins followed by substrate addition and measured after 1 hr by chromogenic assay
Chain of Plasma kallikrein (P03952 20-390 limits assumed): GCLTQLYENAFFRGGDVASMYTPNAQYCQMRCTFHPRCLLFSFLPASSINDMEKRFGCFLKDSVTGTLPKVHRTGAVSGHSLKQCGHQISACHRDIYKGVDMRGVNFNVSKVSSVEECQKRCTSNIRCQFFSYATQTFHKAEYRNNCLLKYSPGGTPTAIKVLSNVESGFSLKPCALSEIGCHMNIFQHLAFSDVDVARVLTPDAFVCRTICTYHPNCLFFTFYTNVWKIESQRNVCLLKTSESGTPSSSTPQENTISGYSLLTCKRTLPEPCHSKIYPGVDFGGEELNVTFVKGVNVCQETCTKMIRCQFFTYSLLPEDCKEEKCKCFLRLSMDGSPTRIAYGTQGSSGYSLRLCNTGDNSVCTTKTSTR
Chain of Plasma kallikrein (P03952 391-638 limits assumed): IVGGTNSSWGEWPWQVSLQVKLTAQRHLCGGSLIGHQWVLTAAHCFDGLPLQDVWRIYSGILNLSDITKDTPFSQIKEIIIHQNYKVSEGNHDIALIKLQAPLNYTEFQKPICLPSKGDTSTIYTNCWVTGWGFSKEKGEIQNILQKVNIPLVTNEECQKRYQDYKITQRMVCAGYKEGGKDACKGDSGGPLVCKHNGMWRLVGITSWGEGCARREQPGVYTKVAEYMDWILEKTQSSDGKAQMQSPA

[11] = Half life in Wistar rat at 6.6 umol/kg, iv measured upto 24 hrs by LC-MS/MS analysis; assay type: ADME, organism-based; details: in vivo
[12] = Oral bioavailability in Wistar rat at 22 umol/kg measured upto 24 hrs by LC-MS/MS analysis; assay type: ADME, organism-based; details: in vivo
Coagulation factor IX = Coagulation factor IX (Homo sapiens, UniProt P00740); assay: Inhibition of human activated Factor IX using spectrozyme F IXa as substrate incubated for 15 mins followed by substrate addition and measured after 1 hr by chromogenic assay
Chain of Coagulation factor IX (P00740 47-191 limits assumed): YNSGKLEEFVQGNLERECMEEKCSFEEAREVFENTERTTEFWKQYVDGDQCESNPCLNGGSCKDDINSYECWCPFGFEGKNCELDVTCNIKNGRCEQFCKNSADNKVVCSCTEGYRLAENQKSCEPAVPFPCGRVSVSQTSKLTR
Chain of Coagulation factor IX (P00740 227-461 limits assumed): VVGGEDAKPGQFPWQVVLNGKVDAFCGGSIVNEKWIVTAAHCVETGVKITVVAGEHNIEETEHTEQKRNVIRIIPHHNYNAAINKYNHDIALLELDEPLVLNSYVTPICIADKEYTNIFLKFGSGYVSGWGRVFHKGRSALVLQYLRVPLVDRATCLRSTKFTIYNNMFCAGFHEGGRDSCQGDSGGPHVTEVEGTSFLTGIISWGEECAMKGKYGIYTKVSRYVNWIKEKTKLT

Rattus norvegicus [13] = species: Rattus norvegicus; remark: listed apart in the source; also: test concentration or dose not given here
Coagulation factor XII = target: T1, Coagulation factor XII (Homo sapiens, UniProt P00748); assay: Inhibition of human activated Factor XII using spectrozyme F XIIa as substrate incubated for 15 mins followed by substrate addition and measured after 1 hr by chromogenic assay
T1 sequence (P00748 whole entry): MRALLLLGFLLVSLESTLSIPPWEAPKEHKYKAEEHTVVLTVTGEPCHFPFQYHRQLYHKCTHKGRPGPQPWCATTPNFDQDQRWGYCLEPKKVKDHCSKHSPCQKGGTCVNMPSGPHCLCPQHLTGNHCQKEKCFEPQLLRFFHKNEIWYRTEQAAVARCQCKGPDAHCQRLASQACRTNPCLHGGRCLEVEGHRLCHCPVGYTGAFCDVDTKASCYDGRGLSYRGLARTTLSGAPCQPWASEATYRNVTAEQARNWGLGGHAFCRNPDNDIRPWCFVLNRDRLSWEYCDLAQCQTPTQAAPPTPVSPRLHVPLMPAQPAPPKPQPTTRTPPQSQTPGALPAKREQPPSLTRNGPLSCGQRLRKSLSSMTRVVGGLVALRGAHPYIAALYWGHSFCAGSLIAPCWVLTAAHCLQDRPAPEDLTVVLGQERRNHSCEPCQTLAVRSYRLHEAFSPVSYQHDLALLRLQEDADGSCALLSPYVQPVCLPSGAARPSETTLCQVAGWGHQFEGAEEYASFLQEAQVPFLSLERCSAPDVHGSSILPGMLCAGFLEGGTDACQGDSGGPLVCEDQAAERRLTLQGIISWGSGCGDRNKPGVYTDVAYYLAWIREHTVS

[14] = target: Chymotrypsin (Rattus norvegicus); assay: Inhibition of rat chymotrypsin using S-2586 as substrate incubated for 15 mins followed by substrate addition and measured after 1 hr by chromogenic assay
Trypsin = Trypsin (Homo sapiens, UniProt P07477+P07478+P35030); assay: Inhibition of human trypsin using S-2222 as substrate incubated for 15 mins followed by substrate addition and measured after 1 hr by chromogenic assay; assay type: protein assay
[15] = MRT in Wistar rat at 22 umol/kg, po measured upto 24 hrs by LC-MS/MS analysis; assay type: ADME, organism-based; details: in vivo
[16] = target: Urokinase-type plasminogen activator (Homo sapiens, UniProt P00749); assay: Inhibition of human uPA using […] uPA substrate incubated for 15 mins followed by substrate addition and measured after 1 hr by chromogenic assay
Rattus norvegicus [17] = species: Rattus norvegicus; remark: listed apart in the source; also: test concentration or dose not given here
[18] = target: Tissue-type plasminogen activator (Homo sapiens, UniProt P00750); assay: Inhibition of human tPA using […] tPA substrate incubated for 15 mins followed by substrate addition and measured after 1 hr by chromogenic assay
Chain of Tissue-type plasminogen activator (P00750 whole entry): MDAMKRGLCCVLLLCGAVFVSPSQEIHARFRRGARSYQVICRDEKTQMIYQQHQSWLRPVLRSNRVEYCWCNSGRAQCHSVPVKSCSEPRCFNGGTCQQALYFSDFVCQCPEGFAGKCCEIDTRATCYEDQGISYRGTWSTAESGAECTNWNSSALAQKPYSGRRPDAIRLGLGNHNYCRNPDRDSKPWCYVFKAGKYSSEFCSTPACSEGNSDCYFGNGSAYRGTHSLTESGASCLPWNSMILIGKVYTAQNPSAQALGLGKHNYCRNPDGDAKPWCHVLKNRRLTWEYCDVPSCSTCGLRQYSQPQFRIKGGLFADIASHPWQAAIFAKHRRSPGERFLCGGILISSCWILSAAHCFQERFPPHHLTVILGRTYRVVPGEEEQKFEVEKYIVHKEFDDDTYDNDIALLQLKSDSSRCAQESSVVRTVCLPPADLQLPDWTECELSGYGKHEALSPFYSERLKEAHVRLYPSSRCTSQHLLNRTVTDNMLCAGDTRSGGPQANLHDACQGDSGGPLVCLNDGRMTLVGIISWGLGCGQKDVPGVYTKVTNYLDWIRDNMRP

Coagulation factor VII = target: T2, Coagulation factor VII (Homo sapiens, UniProt P08709); assay: Inhibition of human activated Factor VII using S-2288 as substrate incubated for 15 mins followed by substrate addition and measured after 1 hr by chromogenic assay
T2 sequence (P08709 whole entry): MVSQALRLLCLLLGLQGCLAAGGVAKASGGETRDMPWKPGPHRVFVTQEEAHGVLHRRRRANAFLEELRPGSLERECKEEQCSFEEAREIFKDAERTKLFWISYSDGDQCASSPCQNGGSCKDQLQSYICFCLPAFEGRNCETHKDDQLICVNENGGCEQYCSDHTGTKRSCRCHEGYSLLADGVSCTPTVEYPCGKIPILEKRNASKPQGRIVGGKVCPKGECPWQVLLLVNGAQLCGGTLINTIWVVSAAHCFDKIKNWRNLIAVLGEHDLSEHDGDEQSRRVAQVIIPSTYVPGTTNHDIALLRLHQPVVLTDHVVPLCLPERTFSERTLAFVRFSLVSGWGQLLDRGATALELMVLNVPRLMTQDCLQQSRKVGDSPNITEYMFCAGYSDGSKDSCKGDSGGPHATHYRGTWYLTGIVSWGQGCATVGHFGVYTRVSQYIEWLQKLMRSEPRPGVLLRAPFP

Row | SMILES | TT (Rattus norvegicus [1]) [min] | MRT [2] [h] | Vd [3] [L] | AUC(0-inf) [4] [ng·h/mL] | AUC(0-inf) [5] [ng·h/mL] | Cmax [6] [ng/mL] | half-life [7] [h] | CL/F [8] [mL/min] | Vd [9] [L] | Ki (Coagulation factor X) [µM] | Ki (Coagulation factor XI) [µM] | clearance [10] [mL/min] | Ki (Plasma kallikrein) [µM] | half-life [11] [h] | bioavailability [12] [%] | Ki (Coagulation factor IX) [µM] | APTT (Rattus norvegicus [13]) [s] | Ki (Coagulation factor XII) [µM] | MRT [15] [h] | PT (Rattus norvegicus [17]) [s] | other results
1 | CCOC(=O)[C@]1(C)CCC[C@@]2(C)[C@@H]3CC[C@@]4(C)C[C@]3(CC[C@@H]21)C/C4=N\OCC1(C)COC1 | 22 | 4.9 | 4.3 | 3380 | 4810 | 728 | 4.2 | 35 | 12.5 | 0.028 | 1.94 | 15 | 0.277 | 3.4 | 42.7 | 4.76 | 20.6 | 7.64 | 5.6 | 18.2 | Ki [14]: 12.378 µM; Ki (Trypsin): 0.331 µM; Ki [16]: 2.03 µM; Ki [18]: 2.83 µM; Ki (Coagulation factor VII): 7.99 µM
2 | CCOC(=O)[C@]1(C)CCC[C@@]2(C)[C@@H]3CC[C@@]4(C)C[C@]3(CC[C@@H]21)C/C4=N\OCc1ccsc1 | 25.5 | 4.6 | 4 | 3410 | 5530 | 1250 | 3.9 | 30 | 10.2 | 0.015 | 1.7 | 15 | 2.21 | 3.2 | 48.6 | 19.7 | 21.3 | 9.29 | 4.1 | 19.1 | Ki [14]: 16.262 µM; Ki (Trypsin): 2.13 µM; Ki [16]: 4.43 µM; Ki [18]: 3.53 µM; Ki (Coagulation factor VII): 11.6 µM
3 | O=C(NC[C@H]1CN(c2ccc(N3CCOCC3=O)cc2)C(=O)O1)c1ccc(Cl)s1 [RIVAROXABAN] | 23.4 | 6.3 | 5.5 | 3510 | 6980 | 1580 | 3.7 | 25 | 8.1 | – | – | 15 | – | 4.4 | 59.7 | – | 21.9 | – | 5.4 | 19.5 | –
